Experimental data published in the supplement of paper PMC10883282.

Tests used:
Experiment in all cases: relative viability vs DMSO control (72 h) (fraction); higher = more viable cells
SK-ES-1 = system: SK-ES-1
Method in brief: (§1)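 Relative viability was measured with ATPLite and expressed as percent growth, averaged across up to triplicate wells. Sarcoma cell lines had been seeded in 384-well plates to reach 80–90% confluence, dosed after 24 h, and incubated 72 h at 37 °C, 5% CO2. All data were rescaled on a scale where 1 is full and 0 is none.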

SW684 = system: SW684
Method in brief: as §1

HS729 = system: HS729
Method in brief: as §1

VA-ES-BJ = system: VA-ES-BJ
Method in brief: as §1

KHOS-NP = system: KHOS-NP
Method in brief: as §1

A204 = system: A204
Method in brief: as §1

SW872 = system: SW872
Method in brief: as §1

SK-LMS-1 = system: SK-LMS-1
Method in brief: as §1

SYO-1 = system: SYO-1
Method in brief: as §1

MES-SA = system: MES-SA
Method in brief: as §1

RD = system: RD
Method in brief: as §1

G401 = system: G401
Method in brief: as §1

O=C(Nc1nc2cccc(-c3ccc(CN4CCS(=O)(=O)CC4)cc3)n2n1)C1CC1 [Filgotinib]
Conditions	relative viability
A204, 0.00017 µM	1.09
A204, 0.00051 µM	1.15
A204, 0.00152 µM	1.07
A204, 0.00457 µM	1.068
A204, 0.01372 µM	1.06
A204, 0.04115 µM	1.14
A204, 0.1235 µM	1.13
A204, 0.3704 µM	1.1
A204, 1.111 µM	1.12
A204, 3.333 µM	1.14
A204, 10 µM	0.974
G401, 0.00017 µM	0.988
G401, 0.00051 µM	1.04
G401, 0.00152 µM	1.027
G401, 0.00457 µM	1.03
G401, 0.01372 µM	1.01
G401, 0.04115 µM	0.995
G401, 0.1235 µM	1.04
G401, 0.3704 µM	1.01
G401, 1.111 µM	1.03
G401, 3.333 µM	1.01
G401, 10 µM	0.911
HS729, 0.00017 µM	1.04
HS729, 0.00051 µM	0.993
HS729, 0.00152 µM	0.953
HS729, 0.00457 µM	0.95
HS729, 0.01372 µM	0.938
HS729, 0.04115 µM	0.898
HS729, 0.1235 µM	0.888
HS729, 0.3704 µM	0.934
HS729, 1.111 µM	0.906
HS729, 3.333 µM	0.849
HS729, 10 µM	0.831
KHOS-NP, 0.00017 µM	1.09
KHOS-NP, 0.00051 µM	1.12
KHOS-NP, 0.00152 µM	1.1
KHOS-NP, 0.00457 µM	1.101
KHOS-NP, 0.01372 µM	1.1
KHOS-NP, 0.04115 µM	1.1
KHOS-NP, 0.1235 µM	1.085
KHOS-NP, 0.3704 µM	1.085
KHOS-NP, 1.111 µM	1.08
KHOS-NP, 3.333 µM	1.1
KHOS-NP, 10 µM	1.09
MES-SA, 0.00017 µM	0.977
MES-SA, 0.00051 µM	0.964
MES-SA, 0.00152 µM	0.943
MES-SA, 0.00457 µM	0.965
MES-SA, 0.01372 µM	0.949
MES-SA, 0.04115 µM	0.953
MES-SA, 0.1235 µM	0.957
MES-SA, 0.3704 µM	0.935
MES-SA, 1.111 µM	0.94
MES-SA, 3.333 µM	0.923
MES-SA, 10 µM	0.736
RD, 0.00017 µM	1.02
RD, 0.00051 µM	1.04
RD, 0.00152 µM	1.04
RD, 0.00457 µM	1.1
RD, 0.01372 µM	1.07
RD, 0.04115 µM	1.1
RD, 0.1235 µM	1.07
RD, 0.3704 µM	1.1
RD, 1.111 µM	1.1
RD, 3.333 µM	1.01
RD, 10 µM	0.846
SK-ES-1, 0.00017 µM	1.02
SK-ES-1, 0.00051 µM	1.06
SK-ES-1, 0.00152 µM	1.07
SK-ES-1, 0.00457 µM	1.04
SK-ES-1, 0.01372 µM	1.06
SK-ES-1, 0.04115 µM	1.07
SK-ES-1, 0.1235 µM	1.04
SK-ES-1, 0.3704 µM	1.03
SK-ES-1, 1.111 µM	1
SK-ES-1, 3.333 µM	1.05
SK-ES-1, 10 µM	0.8196
SK-LMS-1, 0.00017 µM	1.06
SK-LMS-1, 0.00051 µM	1.08
SK-LMS-1, 0.00152 µM	1.06
SK-LMS-1, 0.00457 µM	1.06
SK-LMS-1, 0.01372 µM	1.06
SK-LMS-1, 0.04115 µM	1.08
SK-LMS-1, 0.1235 µM	1.05
SK-LMS-1, 0.3704 µM	1.05
SK-LMS-1, 1.111 µM	1.04
SK-LMS-1, 3.333 µM	1.02
SK-LMS-1, 10 µM	0.866
SW684, 0.00017 µM	1.13
SW684, 0.00051 µM	1.19
SW684, 0.00152 µM	1.211
SW684, 0.00457 µM	1.19
SW684, 0.01372 µM	1.16
SW684, 0.04115 µM	1.19
SW684, 0.1235 µM	1.18
SW684, 0.3704 µM	1.19
SW684, 1.111 µM	1.18
SW684, 3.333 µM	1.16
SW684, 10 µM	1.09
SW872, 0.00017 µM	1.07
SW872, 0.00051 µM	1.02
SW872, 0.00152 µM	1.05
SW872, 0.00457 µM	1.03
SW872, 0.01372 µM	1.04
SW872, 0.04115 µM	1.01
SW872, 0.1235 µM	1.02
SW872, 0.3704 µM	1.02
SW872, 1.111 µM	1.03
SW872, 3.333 µM	1.02
SW872, 10 µM	0.933
SYO-1, 0.00017 µM	0.992
SYO-1, 0.00051 µM	0.995
SYO-1, 0.00152 µM	0.957
SYO-1, 0.00457 µM	0.97
SYO-1, 0.01372 µM	0.907
SYO-1, 0.04115 µM	0.903
SYO-1, 0.1235 µM	0.872
SYO-1, 0.3704 µM	0.843
SYO-1, 1.111 µM	0.7846
SYO-1, 3.333 µM	0.724
SYO-1, 10 µM	0.551
VA-ES-BJ, 0.00017 µM	1.05
VA-ES-BJ, 0.00051 µM	1.05
VA-ES-BJ, 0.00152 µM	1.05
VA-ES-BJ, 0.00457 µM	1.01
VA-ES-BJ, 0.01372 µM	1.01
VA-ES-BJ, 0.04115 µM	0.997
VA-ES-BJ, 0.1235 µM	1.01
VA-ES-BJ, 0.3704 µM	1.01
VA-ES-BJ, 1.111 µM	0.976
VA-ES-BJ, 3.333 µM	0.954
VA-ES-BJ, 10 µM	0.851

CCC(=O)N1CC[C@H](Nc2ncnc3c2CN(c2cnc(OC)c(C(F)(F)F)c2)CC3)C1 [Leniolisib]
Conditions	relative viability
A204, 0.00017 µM	1.04
A204, 0.00051 µM	1.06
A204, 0.00152 µM	1
A204, 0.00457 µM	1.04
A204, 0.01372 µM	1.03
A204, 0.04115 µM	1.02
A204, 0.1235 µM	1.01
A204, 0.3704 µM	0.986
A204, 1.111 µM	0.897
A204, 3.333 µM	0.768
A204, 10 µM	0.579
G401, 0.00017 µM	1.02
G401, 0.00051 µM	1
G401, 0.00152 µM	1.01
G401, 0.00457 µM	1.01
G401, 0.01372 µM	1.02
G401, 0.04115 µM	0.973
G401, 0.1235 µM	0.947
G401, 0.3704 µM	0.936
G401, 1.111 µM	0.868
G401, 3.333 µM	0.835
G401, 10 µM	0.689
HS729, 0.00017 µM	1.07
HS729, 0.00051 µM	1.02
HS729, 0.00152 µM	0.964
HS729, 0.00457 µM	0.982
HS729, 0.01372 µM	0.965
HS729, 0.04115 µM	0.95
HS729, 0.1235 µM	0.947
HS729, 0.3704 µM	0.992
HS729, 1.111 µM	0.838
HS729, 3.333 µM	0.82
HS729, 10 µM	0.675
KHOS-NP, 0.00017 µM	1.11
KHOS-NP, 0.00051 µM	1.11
KHOS-NP, 0.00152 µM	1.09
KHOS-NP, 0.00457 µM	1.101
KHOS-NP, 0.01372 µM	1.08
KHOS-NP, 0.04115 µM	1.07
KHOS-NP, 0.1235 µM	1.07
KHOS-NP, 0.3704 µM	1.061
KHOS-NP, 1.111 µM	1.05
KHOS-NP, 3.333 µM	1.05
KHOS-NP, 10 µM	0.96
MES-SA, 0.00017 µM	0.966
MES-SA, 0.00051 µM	0.94
MES-SA, 0.00152 µM	0.932
MES-SA, 0.00457 µM	0.934
MES-SA, 0.01372 µM	0.936
MES-SA, 0.04115 µM	0.906
MES-SA, 0.1235 µM	0.922
MES-SA, 0.3704 µM	0.895
MES-SA, 1.111 µM	0.8678
MES-SA, 3.333 µM	0.786
MES-SA, 10 µM	0.585
RD, 0.00017 µM	1.08
RD, 0.00051 µM	1.09
RD, 0.00152 µM	1.11
RD, 0.00457 µM	1.11
RD, 0.01372 µM	1.12
RD, 0.04115 µM	1.09
RD, 0.1235 µM	1.09
RD, 0.3704 µM	1.11
RD, 1.111 µM	1.09
RD, 3.333 µM	1.05
RD, 10 µM	0.886
SK-ES-1, 0.00017 µM	1.04
SK-ES-1, 0.00051 µM	1.02
SK-ES-1, 0.00152 µM	1.07
SK-ES-1, 0.00457 µM	1.02
SK-ES-1, 0.01372 µM	1.04
SK-ES-1, 0.04115 µM	1.05
SK-ES-1, 0.1235 µM	1.01
SK-ES-1, 0.3704 µM	1
SK-ES-1, 1.111 µM	0.999
SK-ES-1, 3.333 µM	0.898
SK-ES-1, 10 µM	0.741
SK-LMS-1, 0.00017 µM	1.11
SK-LMS-1, 0.00051 µM	1.07
SK-LMS-1, 0.00152 µM	1.1
SK-LMS-1, 0.00457 µM	1.08
SK-LMS-1, 0.01372 µM	1.05
SK-LMS-1, 0.04115 µM	1.04
SK-LMS-1, 0.1235 µM	1.06
SK-LMS-1, 0.3704 µM	0.998
SK-LMS-1, 1.111 µM	0.939
SK-LMS-1, 3.333 µM	0.827
SK-LMS-1, 10 µM	0.712
SW684, 0.00017 µM	1.091
SW684, 0.00051 µM	1.14
SW684, 0.00152 µM	1.14
SW684, 0.00457 µM	1.14
SW684, 0.01372 µM	1.15
SW684, 0.04115 µM	1.03
SW684, 0.1235 µM	0.912
SW684, 0.3704 µM	0.793
SW684, 1.111 µM	0.742
SW684, 3.333 µM	0.674
SW684, 10 µM	0.548
SW872, 0.00017 µM	1.1
SW872, 0.00051 µM	1.09
SW872, 0.00152 µM	1.07
SW872, 0.00457 µM	1.06
SW872, 0.01372 µM	1.06
SW872, 0.04115 µM	1.03
SW872, 0.1235 µM	1.03
SW872, 0.3704 µM	1.03
SW872, 1.111 µM	0.951
SW872, 3.333 µM	0.907
SW872, 10 µM	0.688
SYO-1, 0.00017 µM	1.03
SYO-1, 0.00051 µM	0.999
SYO-1, 0.00152 µM	0.984
SYO-1, 0.00457 µM	0.965
SYO-1, 0.01372 µM	0.947
SYO-1, 0.04115 µM	0.949
SYO-1, 0.1235 µM	0.933
SYO-1, 0.3704 µM	0.886
SYO-1, 1.111 µM	0.875
SYO-1, 3.333 µM	0.816
SYO-1, 10 µM	0.724
VA-ES-BJ, 0.00017 µM	1.08
VA-ES-BJ, 0.00051 µM	1.09
VA-ES-BJ, 0.00152 µM	1.05
VA-ES-BJ, 0.00457 µM	1.04
VA-ES-BJ, 0.01372 µM	1.02
VA-ES-BJ, 0.04115 µM	1.06
VA-ES-BJ, 0.1235 µM	1.01
VA-ES-BJ, 0.3704 µM	1
VA-ES-BJ, 1.111 µM	0.984
VA-ES-BJ, 3.333 µM	0.88
VA-ES-BJ, 10 µM	0.645
